Laboratory results taken from US20220169639A1 (priority 2018, published 2022).

The compounds below were run on HBeAg (surrogate marker for cccDNA) in HepDES19 cells (assay: Engineered HepDES19 primary screen assay (HBeAg ELISA)). Conditions: Hepatitis B virus, 120 h, HBeAg in culture supernatant, 5 days incubation, read-out: IC50 (HepDES19 primary screen assay, inhibition of extracellular HBeAg level).
Format: cell-based, HBV
Source text: The assay was employed to screen for cccDNA inhibitors. HepDES19 is a cccDNA-producing cell line. In this cell line, HBeAg in the cell culture supernatant as surrogate marker, as HBeAg production depends on cccDNA level and activity. HepDES19 is an engineered cell line which contains a 1.1 unit length HBV genome, and pgRNA transcription from the transgene is controlled by Tetracycline (Tet). In the absence of Tet, pgRNA transcription will be induced, but HBV e antigen (HBeAg) could not be produced from this pgRNA due to very short leader sequence before the HBeAg start codon and the start codon is disrupted. Only after cccDNA is formed, the missing leader sequence and start codon mutation would be restored from the 3′-terminal redundancy of pgRNA, and then HBeAg could be synthesized. Therefore, HBeAg could be used as a surrogate marker for cccDNA (Zhou, T. et al., Antiviral Res. (2006), 72(2), 116-124; Guo, H. et al., J. Virol. (2007), 81(22), 12472-12484).
HepDES19 cells were seeded at 2×10^6 cells per T150 flask and cultured with the culture medium (Dulbecco's Modified Eagle Medium: Nutrient Mixture F-12 [DMEM-F12, Gibco Cat. 11320-82], 10% Fetal Bovine Serum [FBS, Clontech Cat. 631101], 0.1 mM Non-Essential Amino Acids Solution [NEAA, Gibco Cat. 11140-050], 50 μg/mL Penicillin-Streptomycin [PS, Invitrogen Cat. 15140-163], 500 μg/mL Geneticin [G418, Invitrogen Cat. 10131-027]) containing 3 μg/mL Tet (Sigma, Cat. 87128) for 5 days. Cells were then seeded at 4×10^6 cells per T150 in the same culture medium as described above in the absence of Tet for 8 days. Cells were then harvested and frozen at density of 2×10^6 cells per mL. For compound testing, the frozen cells were thawed and seeded into 96-well plates at a density of 6×10^4 cells per well. At 24 hours after seeding, half log serial dilutions of compounds made with Dimethyl sulfoxide (DMSO, Sigma, Cat. D2650) were further diluted with the same culture medium as described above before they were added to the cells to reach desired final compound concentrations and 1% DMSO concentration. Plates were then incubated at 37° C. for another 5 days before measurement of HBeAg level and cell viability. Intracellular HBeAg level were measured with enzyme-linked immunosorbent assay (ELISA) kit (Shanghai Kehua Diagnostic Medical Products Co., Ltd). Cell viability was assessed using Cell Counting Kit-8 (DonJindo, Cat. CK04-20). IC50 values were derived from the dose-response curve using 4 parameter logistic curve fit method.
The compounds of the present invention were tested for their capacity to inhibit extracellular HBeAg level as described herein.
Work on `O=C(O)[C@@H]1C[C@H](NCCCOc2cc(Br)ccc2-c2cc(=O)c3cccc(Cl)c3o2)CCO1` (relative stereo) [Example 060, cis-4-[3-[5-bromo-2-(8-chloro-4-oxo-chromen-2-yl)phenoxy]propylamino]tetrahydropyran-2-carboxylic acid] yielded an IC50 of 4870 nM. For `O=C(O)[C@H]1CCCN1CCCOc1cc(Br)ccc1-c1cc(=O)c2cccc(Cl)c2o1` [Example 003, (2R)-1-[3-[5-bromo-2-(8-chloro-4-oxo-chromen-2-yl)phenoxy]propyl]pyrrolidine-2-carboxylic acid], the IC50 was 2410 nM. With `O=C(O)[C@@H]1CCCN1CCCOc1cc(Br)ccc1-c1cc(=O)c2cccc(Cl)c2o1` [Example 004, (2S)-1-[3-[5-bromo-2-(8-chloro-4-oxo-chromen-2-yl)phenoxy]propyl]pyrrolidine-2-carboxylic acid] the IC50 was 2020 nM. `O=C(O)CC1CCN(CCCOc2cc(C(F)(F)F)ccc2-c2cc(=O)c3cccc(Cl)c3o2)C1` (centres unmarked) [Example 008, 2-[1-[3-[2-(8-chloro-4-oxo-chromen-2-yl)-5-(trifluoromethyl)phenoxy]propyl]pyrrolidin-3-yl]acetic acid] was tested, and the IC50 was 170 nM. `CC(C)[C@@H](NCCCOc1cc(C(F)(F)F)ccc1-c1cc(=O)c2cccc(Cl)c2o1)C(=O)O` [Example 009, (2R)-2-[3-[2-(8-chloro-4-oxo-chromen-2-yl)-5-(trifluoromethyl)phenoxy]propylamino]-3-methyl-butanoic acid] showed an IC50 of 7470 nM. For `O=C(O)C(=O)NCC1(COc2cc(C(F)(F)F)ccc2-c2cc(=O)c3cccc(Cl)c3o2)COC1` [Example 010, 2-[[3-[[2-(8-chloro-4-oxo-chromen-2-yl)-5-(trifluoromethyl)phenoxy]methyl]oxetan-3-yl]methylamino]-2-oxo-acetic acid], the IC50 was 220 nM. With `CC(C)(C)CC(NCCCOc1cc(C(F)(F)F)ccc1-c1cc(=O)c2cccc(Cl)c2o1)C(=O)O` (centres unmarked) [Example 011, 2-[3-[2-(8-chloro-4-oxo-chromen-2-yl)-5-(trifluoromethyl)phenoxy]propylamino]-4,4-dimethyl-pentanoic acid] the IC50 was 3610 nM. `O=C(O)C1CCN(CCCOc2cc(C(F)(F)F)ccc2-c2cc(=O)c3cccc(Cl)c3o2)C1` (centres unmarked) [Example 012, 1-[3-[2-(8-chloro-4-oxo-chromen-2-yl)-5-(trifluoromethyl)phenoxy]propyl]pyrrolidine-3-carboxylic acid] was tested, and the IC50 was 110 nM. `O=C(O)C1CCN(CCOc2cc(Br)ccc2-c2cc(=O)c3cccc(Cl)c3o2)C1` (centres unmarked) [Example 021, 1-[2-[5-bromo-2-(8-chloro-4-oxo-chromen-2-yl)phenoxy]ethyl]pyrrolidine-3-carboxylic acid] was tested, and the IC50 was 180 nM. `C[C@@H]1CN(CCOc2cc(Br)ccc2-c2cc(=O)c3cccc(Cl)c3o2)C[C@H]1C(=O)O` [Example 024, (3S,4S)-1-[2-[5-bromo-2-(8-chloro-4-oxo-chromen-2-yl)phenoxy]ethyl]-4-methyl-pyrrolidine-3-carboxylic acid] gave an IC50 of 1040 nM. `O=C(O)C12CC(NCCOc3cc(Br)ccc3-c3cc(=O)c4cccc(Cl)c4o3)(C1)C2` [Example 026, 3-[2-[5-bromo-2-(8-chloro-4-oxo-chromen-2-yl)phenoxy]ethylamino]bicyclo[1.1.1]pentane-1-carboxylic acid] showed an IC50 of 460 nM. For `O=C(O)C1CCN(CCOc2ccccc2-c2cc(=O)c3cccc(Cl)c3o2)CC1` [Example 029, 1-[2-[2-(8-chloro-4-oxo-chromen-2-yl)phenoxy]ethyl]piperidine-4-carboxylic acid], the IC50 was 1850 nM. Compound `O=C(O)[C@H]1CCCN1CCOc1ccccc1-c1cc(=O)c2cccc(Cl)c2o1` [Example 030, (2R)-1-[2-[2-(8-chloro-4-oxo-chromen-2-yl)phenoxy]ethyl]pyrrolidine-2-carboxylic acid] has an IC50 of 1330 nM. In the case of `O=C(O)C1CCN(CCOc2ccccc2-c2cc(=O)c3cccc(Cl)c3o2)C1` (centres unmarked) [Example 031, 1-[2-[2-(8-chloro-4-oxo-chromen-2-yl)phenoxy]ethyl]pyrrolidine-3-carboxylic acid], the IC50 is reported as 170 nM. Compound `O=C(O)[C@@H]1CCCN1CCOc1ccccc1-c1cc(=O)c2cccc(Cl)c2o1` [Example 032, (2S)-1-[2-[2-(8-chloro-4-oxo-chromen-2-yl)phenoxy]ethyl]pyrrolidine-2-carboxylic acid] has an IC50 of 650 nM. With `O=C(O)C1CN(CCOc2ccccc2-c2cc(=O)c3cccc(Cl)c3o2)C1` [Example 033, 1-[2-[2-(8-chloro-4-oxo-chromen-2-yl)phenoxy]ethyl]azetidine-3-carboxylic acid] the IC50 was 1090 nM. In the case of `O=C(O)[C@H]1CCN(CCOc2cc(C(F)(F)F)ccc2-c2cc(=O)c3cccc(Cl)c3o2)C1` [Example 034, (3S)-1-[2-[2-(8-chloro-4-oxo-chromen-2-yl)-5-(trifluoromethyl)phenoxy]ethyl]pyrrolidine-3-carboxylic acid], the IC50 is reported as 1120 nM. In the case of `O=C(O)C1CN(CCOc2cc(C(F)(F)F)ccc2-c2cc(=O)c3cccc(Cl)c3o2)CCO1` (centres unmarked) [Example 035, 4-[2-[2-(8-chloro-4-oxo-chromen-2-yl)-5-(trifluoromethyl)phenoxy]ethyl]morpholine-2-carboxylic acid], the IC50 is reported as 2380 nM. With `CC(C)[C@@H](NCCOc1cc(C(F)(F)F)ccc1-c1cc(=O)c2cccc(Cl)c2o1)C(=O)O` [Example 036, (2R)-2-[2-[2-(8-chloro-4-oxo-chromen-2-yl)-5-(trifluoromethyl)phenoxy]ethylamino]-3-methyl-butanoic acid] the IC50 was 2030 nM. In the case of `CC(C)[C@H](NCCOc1cc(C(F)(F)F)ccc1-c1cc(=O)c2cccc(Cl)c2o1)C(=O)O` [Example 037, (2S)-2-[2-[2-(8-chloro-4-oxo-chromen-2-yl)-5-(trifluoromethyl)phenoxy]ethylamino]-3-methyl-butanoic acid], the IC50 is reported as 4120 nM. In the case of `O=C(O)C1CC(NCCOc2cc(C(F)(F)F)ccc2-c2cc(=O)c3cccc(Cl)c3o2)C1` (centres unmarked) [Example 038, 3-[2-[2-(8-chloro-4-oxo-chromen-2-yl)-5-(trifluoromethyl)phenoxy]ethylamino]cyclobutanecarboxylic acid], the IC50 is reported as 7240 nM. `CC(C)COc1ccc(-c2cc(=O)c3cccc(Cl)c3o2)c(OCCN2CC[C@@H](C(=O)O)C2)c1` [Example 039, (3R)-1-[2-[2-(8-chloro-4-oxo-chromen-2-yl)-5-isobutoxy-phenoxy]ethyl]pyrrolidine-3-carboxylic acid] was tested, and the IC50 was 3480 nM. For `CC(C)COc1ccc(-c2cc(=O)c3cccc(Cl)c3o2)c(OCCN2CC[C@H](C(=O)O)C2)c1` [Example 040, (3S)-1-[2-[2-(8-chloro-4-oxo-chromen-2-yl)-5-isobutoxy-phenoxy]ethyl]pyrrolidine-3-carboxylic acid], the IC50 was 9060 nM. Work on `O=C(O)C1CCN(CCOc2ccccc2-c2cc(=O)c3cc(F)cc(Cl)c3o2)C1` (centres unmarked) [Example 043, 1-[2-[2-(8-chloro-6-fluoro-4-oxo-chromen-2-yl)phenoxy]ethyl]pyrrolidine-3-carboxylic acid] yielded an IC50 of 1420 nM. `Cc1cc(-c2cc(=O)c3cccc(Cl)c3o2)c(OCCN2CCC[C@@H]2C(=O)O)cc1Br` [Example 044, (2R)-1-[2-[5-bromo-2-(8-chloro-4-oxo-chromen-2-yl)-4-methyl-phenoxy]ethyl]pyrrolidine-2-carboxylic acid] showed an IC50 of 4750 nM. `Cc1cc(-c2cc(=O)c3cccc(Cl)c3o2)c(OCCN2CCC[C@H]2C(=O)O)cc1Cl` [Example 045] was tested, and the IC50 was 6500 nM. Compound `Cc1cc(-c2cc(=O)c3cccc(Cl)c3o2)c(OCCCNC2CC(C(=O)O)C2)cc1Cl` (centres unmarked) [Example 046, 3-[3-[5-chloro-2-(8-chloro-4-oxo-chromen-2-yl)-4-methyl-phenoxy]propylamino]cyclobutanecarboxylic acid] has an IC50 of 4370 nM. `Cc1cc(-c2cc(=O)c3cccc(Cl)c3o2)c(OCCOCCN2CCC[C@@H]2C(=O)O)cc1Br` [Example 048, (2R)-1-[2-[2-[5-bromo-2-(8-chloro-4-oxo-chromen-2-yl)-4-methyl-phenoxy]ethoxy]ethyl]pyrrolidine-2-carboxylic acid] gave an IC50 of 6680 nM. `COc1cc(OCCOCCN2CC[C@@H](C(=O)O)C2)c(-c2cc(=O)c3cccc(Cl)c3o2)cc1C` [Example 050, (3R)-1-[2-[2-[2-(8-chloro-4-oxo-chromen-2-yl)-5-methoxy-4-methyl-phenoxy]ethoxy]ethyl]pyrrolidine-3-carboxylic acid] gave an IC50 of 6930 nM.
